Data set [1] can be described thus: Solubility in transparent silicone resin SIM-360 matrix. As to conditions: room temperature, stirring; judged dissolved when solution became transparent.
Description: With stirring at room temperature, transparent silicone resin SIM-360 matrix (Shin-Etsu Chemical Co., Ltd.) was added in incremental amounts.
For data set [2] the following is noted: in ethanol.

Each structure is given as a SMILES string. ≈ marks a conversion by molar mass, not a printed value.

As for `C[Si](C)(C)O[Si](C)(CCCC1(CCC[Si](C)(O[Si](C)(C)C)O[Si](C)(C)C)c2cc(-c3ccc(-c4ccccc4)cc3)ccc2-c2ccc(-c3ccc(-c4ccccc4)cc3)cc21)O[Si](C)(C)C` [Compound #2, 2,7-bis(biphenyl)-9,9′-di-[3-(1-trimethylsiloxy-1,3,3,3-tetramethyldisiloxan-1-yl)propyl]-fluorene], in data set [1], the “solubility in silicone resin SIM-360 matrix” value (“solubility” for short) was 1.3 mM (≈ 1290 µg/mL). Besides, in data set [2], the “maximum absorption peak wavelength” value is given as 338 nm and the molar absorption coefficient was 7.07×10^4.

As for `C[Si](C)(C)O[Si](C)(C)O[Si](C)(C)O[Si](C)(C)O[Si](C)(C)CCCC1(CCC[Si](C)(C)O[Si](C)(C)O[Si](C)(C)O[Si](C)(C)O[Si](C)(C)C)c2cc(-c3ccc(-c4ccccc4)cc3)ccc2-c2ccc(-c3ccc(-c4ccccc4)cc3)cc21` [Compound #4, 2,7-bis(biphenyl)-9,9′-di-[3-(undecamethylpentasiloxan-1-yl)propyl]fluorene], the “solubility” value in data set [1] was 6.0 mM (≈ 7750 µg/mL). In data set [2], the “maximum absorption peak wavelength” value was 338 nm and the molar absorption coefficient is given as 6.81×10^4.

Regarding `CCCCCCC1(CCCCCC)c2cc(-c3ccc(-c4ccccc4)cc3)ccc2-c2ccc(-c3ccc(-c4ccccc4)cc3)cc21` [Compound #5, 2,7-Bis(Biphenyl)-9,9′-Dihexylfluorene, reference compound], the “solubility” value in data set [1] is “could not be dissolved”.
